# Data taken from ChEMBL document CHEMBL5137108, “Calofolic Acid-A from Calophyllum scriblitifolium Bark Has Vasorelaxant Activity via Indirect PKA Activation Caused by PI-3 Kinase Inhibition in Rat Vascular Smooth Muscle Cells” (J Nat Prod, 2022).
# Activity calls are given as the source filed them. The rule behind the calls is not given here.
# Tests used:
# VSMC [1] = test: Inhibition of isoproterenol-induced PKA substrate phosphorylation in Wistar rat VSMCs at 10 uM preincubated for 60 mins followed by ISO stimulation and measured upto 30 mins by Western blot analysis; format: cell-based; conditions: time 90.0 min
# VSMC [2] = test: Activation of PKA substrate phosphorylation in Wistar rat VSMCs at 100 uM incubated for 60 mins by Western blot analysis; format: cell-based; conditions: filed as activator
# VSMC [3] = test: Activation of PKA substrate phosphorylation in isoproterenol-induced Wistar rat VSMCs at 100 uM preincubated for 60 mins followed by ISO stimulation and measured upto 30 mins by Western blot analysis; format: cell-based; conditions: filed as activator, time 90.0 min
# VSMC [4] = test: Activation of PKA substrate phosphorylation in isoproterenol-induced Wistar rat VSMCs at 10 uM preincubated for 60 mins followed by isoproterenol stimulation and measured upto 20 mins by Western blot analysis; format: cell-based; conditions: filed as activator, time 80.0 min
# VSMC [5] = test: Activation of PKA in isoproterenol-induced Wistar rat VSMCs assessed as increase in intracellular cAMP concentration at 100 uM measured 20 mins after ISO stimulation; format: cell-based; conditions: filed as activator
# VSMC [6] = test: Cytotoxicity against Wistar rat VSMCs assessed as reduction in cell viability at 50 uM incubated for 48 hrs by MTT assay; format: toxicity, cell-based
# VSMC [7] = test: Inhibition of phenylephrine-induced MLC phosphorylation at Ser19 residue in Wistar rat VSMCs at 50 uM preincubated for 60 mins followed by phenylephrine stimulation and measured upto 30 mins by Western blot analysis; format: cell-based; conditions: time 90.0 min
# [8] = target: T1, Protein phosphatase 1 regulatory subunit 12A (Rattus norvegicus) (UniProt Q10728); test: Activation of MYTP1 phosphorylation at Ser668 residue in Wistar rat VSMCs at 50 uM incubated for 60 mins by Western blot analysis; format: cell-based; conditions: VSMC, filed as activator
# T1 sequence (whole entry): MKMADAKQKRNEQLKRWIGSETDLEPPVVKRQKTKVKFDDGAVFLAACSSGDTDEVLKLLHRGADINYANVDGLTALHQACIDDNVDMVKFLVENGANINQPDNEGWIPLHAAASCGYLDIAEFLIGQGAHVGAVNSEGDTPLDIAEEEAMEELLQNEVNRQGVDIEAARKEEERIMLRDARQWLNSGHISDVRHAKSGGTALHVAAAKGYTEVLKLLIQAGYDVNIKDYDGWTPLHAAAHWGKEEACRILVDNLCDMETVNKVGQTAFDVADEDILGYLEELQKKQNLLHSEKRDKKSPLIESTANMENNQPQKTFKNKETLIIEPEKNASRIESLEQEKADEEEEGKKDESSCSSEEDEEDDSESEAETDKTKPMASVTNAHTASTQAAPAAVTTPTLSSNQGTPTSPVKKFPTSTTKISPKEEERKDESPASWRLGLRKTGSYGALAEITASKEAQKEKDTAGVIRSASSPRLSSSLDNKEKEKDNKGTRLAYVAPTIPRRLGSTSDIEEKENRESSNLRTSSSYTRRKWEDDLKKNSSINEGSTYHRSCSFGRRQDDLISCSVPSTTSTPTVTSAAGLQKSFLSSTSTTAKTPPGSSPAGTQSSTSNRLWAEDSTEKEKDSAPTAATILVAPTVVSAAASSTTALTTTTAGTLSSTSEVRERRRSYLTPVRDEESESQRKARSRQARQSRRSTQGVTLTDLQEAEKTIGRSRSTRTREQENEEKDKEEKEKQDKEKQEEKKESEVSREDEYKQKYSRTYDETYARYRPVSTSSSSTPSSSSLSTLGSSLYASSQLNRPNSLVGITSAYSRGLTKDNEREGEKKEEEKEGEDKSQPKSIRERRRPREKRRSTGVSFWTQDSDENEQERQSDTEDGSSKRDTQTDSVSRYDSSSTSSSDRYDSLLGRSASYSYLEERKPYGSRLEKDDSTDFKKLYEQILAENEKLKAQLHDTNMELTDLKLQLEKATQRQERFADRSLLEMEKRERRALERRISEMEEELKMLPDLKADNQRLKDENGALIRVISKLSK
# [9] = target: T1, Protein phosphatase 1 regulatory subunit 12A (Rattus norvegicus); test: Activation of MYTP1 phosphorylation at Ser668 residue in phenylephrine-stimulated Wistar rat VSMCs at 50 uM preincubated for 60 mins followed by phenylephrine stimulation and measured upto 30 mins by Western blot analysis; format: cell-based; conditions: VSMC, filed as activator, time 90.0 min
# [10] = target: T1, Protein phosphatase 1 regulatory subunit 12A (Rattus norvegicus); test: Activation of MYTP1 phosphorylation at Ser695 residue in phenylephrine-stimulated Wistar rat VSMCs at 50 uM preincubated for 60 mins followed by phenylephrine stimulation and measured upto 30 mins by Western blot analysis; format: cell-based; conditions: VSMC, filed as activator, time 90.0 min
# VSMC [11] = test: Activation of HSP20 phosphorylation in isoproterenol-induced Wistar rat VSMCs at 50 uM preincubated for 60 mins followed by ISO stimulation and measured upto 30 mins by Western blot analysis; format: cell-based; conditions: filed as activator, time 90.0 min
# VSMC [12] = test: Activation of PKA substrate phosphorylation in Wistar rat VSMCs at 50 uM incubated for 60 mins by Western blot analysis; format: cell-based; conditions: filed as activator
# VSMC [13] = test: Activation of HSP90 phosphorylation in Wistar rat VSMCs at 50 uM incubated for 60 mins by Western blot analysis; format: cell-based; conditions: filed as activator
# VSMC [14] = test: Activation of PKA substrate phosphorylation in isoproterenol-induced Wistar rat VSMCs at 50 uM preincubated for 60 mins followed by ISO stimulation and measured upto 30 mins by Western blot analysis; format: cell-based; conditions: filed as activator, time 90.0 min
# VSMC [15] = test: Activation of PKA substrate phosphorylation in Wistar rat VSMCs incubated for 60 mins by Western blot analysis; format: cell-based; conditions: filed as activator, dose 5-50 µM, DDE = dose-dependent effect
# B16-F10 = test: Activation of PKA substrate phosphorylation in mouse B16-F10 cells incubated for 60 mins by Western blot analysis; format: cell-based; conditions: filed as activator
# [16] = target: cAMP-dependent protein kinase (PKA) (Homo sapiens) (UniProt P22694+P17612+P22612); test: Activation of PKA substrate phosphorylation in HEK293 cells incubated for 60 mins by Western blot analysis; format: cell-based; conditions: filed as activator
# VSMC [17] = test: Activation of PKA substrate phosphorylation in Wistar rat VSMCs at 10 uM incubated for 60 mins in the presence of LY294002 by Western blot analysis; format: cell-based; conditions: filed as activator
# VSMC [18] = test: Inhibition of isoproterenol-induced AKT phosphorylation at Thr308 residue in Wistar rat VSMCs at 50 uM preincubated for 60 mins followed by ISO stimulation and measured upto 30 mins by Western blot analysis; format: cell-based; conditions: time 90.0 min
# VSMC [19] = test: Inhibition of isoproterenol-induced AKT phosphorylation at Ser473 residue in Wistar rat VSMCs at 50 uM preincubated for 60 mins followed by ISO stimulation and measured upto 30 mins by Western blot analysis; format: cell-based; conditions: time 90.0 min
# [20] = Inhibition of recombinant human full length PI3K p110alpha/[…] alpha activity assessed as PIP3 generation using PI(4,5)P2 (PIP2) as substrate incubated for 3 hrs by competitive binding based colorimetric analysis
# VSMC [21] = test: Activation of PKA in isoproterenol-induced Wistar rat VSMCs assessed as fold increase in intracellular cAMP concentration at 50 uM measured 20 mins after ISO stimulation relative to isoproterenol; format: cell-based; conditions: filed as activator
# VSMC [22] = test: Activation of PKA substrate phosphorylation in Wistar rat VSMCs at 10 uM incubated for 60 mins in the presence of IBMX by Western blot analysis; format: cell-based; conditions: filed as activator
# VSMC [23] = test: Inhibition of AKT phosphorylation at Ser473 residue in Wistar rat VSMCs at 10 uM measured upto 60 mins by Western blot analysis; format: cell-based
# VSMC [24] = test: Activation of PKA substrate phosphorylation in Wistar rat VSMCs at 10 uM incubated for 60 mins by Western blot analysis; format: cell-based; conditions: filed as activator
# VSMC [25] = test: Activation of PKA in isoproterenol-induced Wistar rat VSMCs assessed as fold increase in intracellular cAMP concentration at 10 uM measured 20 mins after ISO stimulation; format: cell-based; conditions: filed as activator
structure (smiles),measurement,setting,value
O=S(=O)(NCCNC/C=C/c1ccc(Br)cc1)c1cccc2cnccc12,inhibition,VSMC [1],Active
CC(C)Cn1c(=O)n(C)c(=O)c2nc[nH]c21,Activity,VSMC [2],Active
same,Activity,VSMC [3],Active
same,Activity,VSMC [4],Active
same,Activity,VSMC [5],Active
CC[C@H](CC(=O)O)c1c2c(c(O)c3c1O[C@H](C)[C@H](C)C3=O)C=CC(C)(C)O2,Activity,VSMC [6],80%
same,inhibition,VSMC [7],Active
same,Activity,[8],Active
same,Activity,[9],Active
same,Activity,[10],Active
same,Activity,VSMC [11],Active
same,Activity,VSMC [12],Active
same,Activity,VSMC [13],Active
same,Activity,VSMC [14],Active
same,Activity,VSMC [15],Dde
same,Activity,B16-F10,Active
same,Activity,[16],Active
same,Activity,VSMC [4],Active
same,Activity,VSMC [17],Active
same,inhibition,VSMC [18],Active
same,inhibition,VSMC [19],Active
same,IC50,[20],6 µM
same,fold change (FC),VSMC [21],2.5
O=c1cc(N2CCOCC2)oc2c(-c3ccccc3)cccc12,Activity,VSMC [22],Active
same,Activity,VSMC [4],Active
same,inhibition,VSMC [23],Active
same,Activity,VSMC [24],Active
same,fold change (FC),VSMC [25],2
